We go through nine compounds from patent US6756374B2, “Diaminothiazoles having antiproliferative activity” (Hoffmann-La Roche Inc., priority 2001, dated 2004).

The target of test [1] is human cyclin E-CDK2 (Homo sapiens, UniProt P24941). The experiment in a line: FlashPlate kinase assay, cyclin E-CDK2. The format is biochemical. As to conditions: Rb protein substrate, 1 μM ATP. How it is done:
(§1) To determine inhibition of Cdk4, Cdk2 and Cdk1 activity, kinase assays were conducted using FlashPlate™ assays (NEN™-Life Science Products). FlashPlate assays were performed using recombinant human cyclin B-CDK1, human cyclin E-CDK2 or human cyclin D1-CDK4 complexes. GST-cyclinE (GST-cycE), CDK2, GST-cyclinB (GST-cycB), CDK1, GST-CDK4 and cyclin D1 (cycD1) cDNA clones in baculovirus vectors were provided by Dr. W. Harper at the Baylor College of Medicine, Houston, Tex.
(§2) The expression of the 62Kd protein was under the control of an IPTG inducible promoter in an M15 E. coli strain. Cells were lysed by sonication and purification was carried out by binding lysates at pH 8.0 to a Ni-chelated agarose column pretreated with 1 mM imidazole. The resin was then washed several times with incrementally decreasing pH buffers to pH 6.0, and eluted with 500 mM imidazole. Eluted protein was dialysed against 20 mM HEPES pH 7.5, 30% glycerol, 200 mM NaCl, and 1 mM DTT. Purified Rb fusion protein stocks were quantitated for protein concentration, aliquoted, and stored at −70° C.
(§3) For all three kinase assays reported herein, 96-well FlashPlates were coated with Rb protein at 10 μg/ml, using 100 μl per well. Plates were incubated at 4° C. overnight or at room temperature for 3 hours on a shaker. To control for nonspecific phosphorylation, one row of wells was coated with 100 μl/well coating buffer (20 mM HEPES, 0.2 M NaCl). Plates were then washed twice with wash buffer (0.01% Tween 20 in phosphate-buffered saline). Compounds to be tested (“test compounds”) were added to the wells at 5×final concentration. Reactions were initiated by immediate addition of 40 μl reaction mix (25 mM HEPES, 20 mM MgCl2, 0.002% Tween 20, 2 mM DTT, 1 μM ATP, 4 nM ^33P-ATP) and a sufficient amount of enzyme to give counts that were at least 10-fold above background. Plates were incubated at room temperature on a shaker for 30 minutes. Plates were washed four times with the wash buffer, sealed, and counted on the TopCount scintillation counter (Packard Instrument Co., Downers Grove, Ill.]. The percent inhibition of Rb phosphorylation, which is a measure of the inhibition of CDK activity, was determined according to the following formula: [formula]
(§4) where “test compound” refers to the average counts per minute of the test duplicates, “nonspecific” refers to the average counts per minute when no CyclinD/Cdk4, etc., was added, and “total” refers to the average counts per minute when no compound was added.

For test [2], the target named is human cyclin B-CDK1 (Homo sapiens, UniProt P06493). The experiment in a line: FlashPlate kinase assay, cyclin B-CDK1. The format is biochemical. The following applies: Rb protein substrate, 1 μM ATP. On the procedure:
as §1, §2, §3, §4

The target of test [3] is human cyclin D1-CDK4 (Homo sapiens, UniProt P11802). The experiment in a line: FlashPlate kinase assay, cyclin D1-CDK4. The class given is biochemical. The following applies: Rb protein substrate, 1 μM ATP. On the procedure:
as §1, §2, §3, §4

In test [4] the test system is HCT116. Description: Tetrazolium dye (MTT) proliferation assay. The class given is cell-based. As to conditions: Homo sapiens, HCT-116; HCT116 colorectal carcinoma cell line. On the procedure:
The cell line used was HCT116, a colorectal carcinoma cell line obtained from the American Type Cell Culture Collection (ATCC;
Rockville, Md.). The cells were grown in McCoy's 5A medium supplemented with 10% FCS and L-glutamine.
Cells were plated at the appropriate seeding density to give logarithmic growth over the course of the assay in a 96-well tissue culture plate. Plates were incubated overnight at 37° C. in a humidified incubator with 5% CO2. The next day, test compounds were serially diluted to four times the final concentration in the appropriate medium containing 1.2% DMSO. One-fourth final volume of each dilution was added in duplicate to the plates containing cells. The same volume of 1.2% DMSO in medium was added to a row of “control wells” such that the final concentration of DMSO in each well was 0.3%. Wells to which no cells were added served as the “blank.” Wells to which no inhibitor was added served as “no inhibitor control.” The plates were) returned to the incubator, and at set time points (determined by their growth curves) plates were analyzed as described below.
3-(4,5-dimethylthiazole-2-yl)-2,5-diphenyl-2H-tetrazolium bromide (thiazolyl blue; MTT; Sigma) was added to each well to yield a final concentration of 1 mg/ml. Plates were returned to the incubator for 2.5-3 hours at 37° C. The MTT-containing medium was removed and the resulting formazan metabolite was solubilized in 100% ethanol with shaking for 15 minutes at room temperature. Absorbance readings were taken in a microtiter plate reader (Dynatech and Molecular Devices plate readers were used interchangeably) at a wavelength of 570 nm with a 650 nm reference. Percent inhibition (% INH) is calculated by subtracting the absorbance of the blank well from all wells, then subtracting the ratio of the average absorbance of each test duplicate (SAVE) by the average of the controls (CAVE) from 1.00. The final number is then multiplied by 100 (% INH=(1.00−SAVE/CAVE)×100).

Test [5] deals with Cdk2 (Homo sapiens, UniProt P24941). The following applies: cited from earlier work.
Test [6] has as its target Cdk4 (Homo sapiens, UniProt P11802). As to conditions: cited from earlier work.
The test system of test [7] is cells. The following applies: cited from earlier work.
The target of test [8] is Cdk1 (Homo sapiens, UniProt P06493). The following applies: cited from earlier work.
Cdk1, sequence (P06493 whole entry, species assumed): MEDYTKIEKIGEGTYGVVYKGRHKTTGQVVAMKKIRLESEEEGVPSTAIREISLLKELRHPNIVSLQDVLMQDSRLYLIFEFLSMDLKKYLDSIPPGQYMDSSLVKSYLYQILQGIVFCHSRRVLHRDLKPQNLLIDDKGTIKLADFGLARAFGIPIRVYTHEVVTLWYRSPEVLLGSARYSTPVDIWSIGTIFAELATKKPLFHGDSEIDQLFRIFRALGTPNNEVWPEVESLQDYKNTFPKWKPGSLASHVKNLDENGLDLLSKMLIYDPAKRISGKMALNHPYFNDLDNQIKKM
Cdk1, sequence (P14635 whole entry partner, species assumed): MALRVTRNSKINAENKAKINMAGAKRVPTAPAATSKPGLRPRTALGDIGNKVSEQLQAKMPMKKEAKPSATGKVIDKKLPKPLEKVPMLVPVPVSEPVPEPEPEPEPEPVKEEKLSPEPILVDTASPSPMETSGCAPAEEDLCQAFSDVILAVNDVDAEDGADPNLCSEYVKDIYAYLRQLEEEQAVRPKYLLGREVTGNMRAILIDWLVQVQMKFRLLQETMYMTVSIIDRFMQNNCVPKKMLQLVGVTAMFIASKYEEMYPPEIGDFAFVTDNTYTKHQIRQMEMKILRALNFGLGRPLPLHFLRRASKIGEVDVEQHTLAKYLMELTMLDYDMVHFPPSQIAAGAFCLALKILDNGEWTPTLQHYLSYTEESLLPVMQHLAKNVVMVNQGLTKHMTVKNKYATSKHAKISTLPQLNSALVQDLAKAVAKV
The test system of test [9] is PKC. The following applies: cited from earlier work.

human cyclin D1-CDK4, sequence (P11802 whole entry): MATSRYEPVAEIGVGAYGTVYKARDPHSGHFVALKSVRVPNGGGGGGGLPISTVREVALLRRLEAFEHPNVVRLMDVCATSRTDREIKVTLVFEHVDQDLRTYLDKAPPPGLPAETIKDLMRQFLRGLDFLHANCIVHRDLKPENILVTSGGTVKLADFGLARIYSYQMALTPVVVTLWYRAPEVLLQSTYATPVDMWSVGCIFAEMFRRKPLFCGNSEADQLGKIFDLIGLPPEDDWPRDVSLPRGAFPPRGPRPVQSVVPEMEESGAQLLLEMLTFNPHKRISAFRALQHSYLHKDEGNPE
human cyclin D1-CDK4, sequence (P24385 whole entry partner): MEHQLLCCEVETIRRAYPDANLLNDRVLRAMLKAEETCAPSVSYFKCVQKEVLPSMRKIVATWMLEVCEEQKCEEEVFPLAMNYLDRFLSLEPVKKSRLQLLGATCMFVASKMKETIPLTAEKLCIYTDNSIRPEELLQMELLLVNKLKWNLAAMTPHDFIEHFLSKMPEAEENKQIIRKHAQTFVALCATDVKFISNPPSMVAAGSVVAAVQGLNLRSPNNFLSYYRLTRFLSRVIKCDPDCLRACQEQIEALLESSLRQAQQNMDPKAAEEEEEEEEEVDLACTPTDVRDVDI
human cyclin B-CDK1, sequence (P06493 whole entry): as the sequence (P06493 whole entry, species assumed) above
human cyclin B-CDK1, sequence (P14635 whole entry partner): as the sequence (P14635 whole entry partner, species assumed) above
Cdk4, sequence (P11802 whole entry, species assumed): as the sequence (P11802 whole entry) above
Cdk4, sequence (P24385 whole entry partner, species assumed): as the sequence (P24385 whole entry partner) above

What is called IC50 is the point on the concentration scale where inhibition reaches its midpoint. Low values mean higher potency, high ones lower potency. `CN1CCN(c2ccc(Nc3nc(N)c(C(=O)c4ccc(NCCO)c([N+](=O)[O-])c4)s3)cc2)CC1` [Example 57, [4-Amino-2-[[4-(4-methyl-1-piperazinyl)phenyl]amino]-5-thiazolyl][4-(2-hydroxyethyl)amino-3-nitrophenyl]methanone]: the IC50 in test [1] was 1.9 µM; in [2], 0.9 µM; in test [3] it was 0.009 µM; in test [4], 2.1 µM.
In the same order, the values of `CN1CCN(c2ccc(Nc3nc(N)c(C(=O)c4ccc(N5CCCC5)c([N+](=O)[O-])c4)s3)cc2)CC1` [Example 58, [4-Amino-2-[[4-(4-methyl-1-piperazinyl)phenyl]amino]-5-thiazolyl][3-nitro-4-(1-pyrrolidinyl)phenyl]methanone] are 2.4 µM, 3.9 µM, 0.019 µM and 3.1 µM.
In the same order, the values of `CN1CCN(c2ccc(Nc3nc(N)c(C(=O)c4ccc(N5CCOCC5)c([N+](=O)[O-])c4)s3)cc2)CC1` [Example 59, [4-Amino-2-[[4-(4-methyl-1-piperazinyl)phenyl]amino]-5-thiazolyl][3-nitro-4-(4-morpholinyl)phenyl]methanone] are 4.4 µM, 4.3 µM, 0.024 µM and 3.9 µM.
As to `COCCNc1ccc(C(=O)c2sc(Nc3ccc(N4CCN(C)CC4)cc3)nc2N)cc1[N+](=O)[O-]` [Example 60, [4-Amino-2-[[4-(4-methyl-1-piperazinyl)phenyl]amino]-5-thiazolyl][3-nitro-4-[(2-methoxyethyl)amino]phenyl]methanone], the IC50 is 7.9 µM in [1], 5.9 µM in test [2], 0.017 µM in [3] and 4.9 µM in [4].
The matching figures for `CC(C)C[C@H](CO)Nc1ccc(C(=O)c2sc(Nc3ccc(N4CCN(C)CC4)cc3)nc2N)cc1[N+](=O)[O-]` [Example 63, (R)-[4-Amino-2-[[4-(4-methyl-1-piperazinyl)phenyl]amino]-5-thiazolyl][3-nitro-4-[[1-(hydroxymethyl)-3-methylbutyl]amino]phenyl]methanone]: 5.3 µM, 5.2 µM, 0.025 µM and 1.3 µM.
In the same order, the values of `CN1CCN(c2ccc(Nc3nc(N)c(C(=O)c4ccc(N5CCC(O)CC5)c([N+](=O)[O-])c4)s3)cc2)CC1` [Example 64, [4-Amino-2-[[4-(4-methyl-1-piperazinyl)phenyl]amino]-5-thiazolyl][3-nitro-4-(4-hydroxy-1-piperidinyl)phenyl]methanone] are 4.8 µM, 3.5 µM, 0.009 µM and 8 µM.
In the same order, the values of `CN1CCN(c2ccc(Nc3nc(N)c(C(=O)c4ccc(N5CCCC5)c(N)c4)s3)cc2)CC1` [Example 65] are 7.4 µM, 2.2 µM, 0.026 µM and 1.2 µM.
As for `CC(C)C[C@H](CO)Nc1ccc(C(=O)c2sc(Nc3ccc(N4CCN(C)CC4)cc3)nc2N)cc1N` [Example 66, (R)-[3-Amino-4-[[1-(hydroxymethyl)-3-methylbutyl]amino]phenyl][4-amino-2-[[4-(4-methyl-1-piperazinyl)phenyl]amino]-5-thiazolyl]methanone], the IC50 in test [1] came to 3.8 µM; in [2] it was 9.6 µM; in test [3], 0.02 µM; in test [4], 10.8 µM.
For `CN1CC[C@H](c2c(O)cc(O)c3c(=O)cc(-c4ccccc4Cl)oc23)[C@H](O)C1` [Flavopiridol], the “inhibition of Cdk2” value in [5] is given as “inhibits”. Moreover, in test [6], the “inhibition of Cdk4” value is recorded as “inhibits”. In [7], the cell cycle block entry is “blocks cells in both G1 and G2 phases”. Also, the “inhibition of Cdk1” value in [8] is on record as “inhibits”. The “inhibition of PKC” value in test [9] is recorded as “weaker inhibitor”.
